From patent publication US4491675A, “Hydroformylation process using triarylphosphine and bisphosphine monooxide ligands” (Union Carbide Corporation, priority 1981, dated 1985)

What was measured:
[1] = Continuous propylene hydroformylation with stepwise CO partial pressure increase, catalyst stability (Examples 14 to 18, Table II); conditions: for Aldehyde Product Reaction Rate, day 12, corrected reaction rate (in parenthesis): day 12 at 130° C., corrected with mathematical rate model for standard rhodium-triphenylphosphine catalyst; for % Activity Decline: decline in catalyst activity from Day 6 through Day 12 at 130° C.; for Aldehyde Product Reaction Rate, day 6: observed, day 6 at 130° C., total gas about 165 psig, Rh 200 or 300 ppm
Description: During days 9 to 13 the carbon monoxide partial pressure was increased stepwise from about 10 to 25 psia and returned to about 10 psia for day 14.

[2] = Continuous propylene hydroformylation, long term catalyst stability (Examples 1 to 13, Table I); conditions: for Aldehyde Product Reaction Rate, day 4, corrected reaction rate (in parenthesis) / Aldehyde Product Reaction Rate, day 4: day 4 at 130° C.; for Aldehyde Product Reaction Rate, day 4, corrected reaction rate (in parenthesis): corrected with mathematical rate model for standard rhodium-triphenylphosphine catalyst; for % Activity Decline: decline in catalyst activity from Day 1 through Day 4 at 130° C.; for Aldehyde Product Reaction Rate, day 1 / Aldehyde Product Reaction Rate, day 4: observed, total gas about 165 psig, Rh 100 or 200 ppm; for Aldehyde Product Reaction Rate, day 1: day 1 at 130° C.; for thermal catalyst stability: 130° C., in words, relative comparison of ligand systems of Table I
Description: A series of long term catalyst stability experiments were conducted in a glass reactor operating in a continuous propylene hydroformylation mode. The reactor consisted of a three ounce pressure bottle submersed in an oil bath with a glass front for viewing. In each experiment about 20 ml. of a freshly prepared rhodium catalytic precursor solution was charged to the reactor with a syringe after purging the system with nitrogen. Each precursor solution contained from 100 to 200 ppm rhodium calculated as free metal (as noted in Table I below) introduced as rhodium dicarbonyl acetylacetonate, a phosphorus ligand or mixture of phosphorus ligands and a solvent.
After closing the reactor, the system was again purged with nitrogen and the oil bath was heated to furnish the desired hydroformylation reaction temperature. […] The flows of the feed gases (carbon monoxide, hydrogen and propylene) were controlled individually with mass flow meters and the feed gases dispersed into the precursor solution via fritted glass spargers. The unreacted portion of the feed gases stripped out the product aldehydes. […] The product aldehydes for each experiment were analyzed over the first day of continuous operation at 130° C. and over the fourth day of continuous operation at 130° C. and the average reaction rates for each experiment in terms of gram moles per liter per hour of total product aldehydes for the first and fourth days of continuous operation at the average measured partial pressures of hydrogen, carbon monoxide and propylene for said days are given in Table I below.

Molecule | Aldehyde Product Reaction Rate, day 12, corrected reaction rate (in parenthesis) [1] | % Activity Decline [1] [%] | Aldehyde Product Reaction Rate, day 6 [1] [gmoles/L hr] | Aldehyde Product Reaction Rate, day 4, corrected reaction rate (in parenthesis) [2] | % Activity Decline [2] [%] | Aldehyde Product Reaction Rate, day 1 [2] [g·mol/L/h] | Aldehyde Product Reaction Rate, day 4 [2] [g·mol/L/h] | thermal catalyst stability [2]
(CH3 O-C6 H4)3 P [Example 16] | 1.14 gmoles/L hr | 14 | 1.33 |  |  |  |  | 
c1ccc(P(c2ccccc2)c2ccccc2)cc1 [Example 14, (C6 H5)3 P] | .76 gmoles/L hr | 32 | 1.12 |  |  |  |  | 
(CH3 OC6 H4)3 P [Example 5] |  |  |  | 1.36 g·mol/L/h | 13 | 1.57 | 1.68 | 
(CH3 C6 H4)3 P [Example 3] |  |  |  | 1.02 g·mol/L/h | 25 | 1.36 | 1.49 | 
CH3 -C6 H4)3 P [Example 15] | 1.24 gmoles/L hr | 17 | 1.50 |  |  |  |  | 
c1ccc(P(c2ccccc2)c2ccccc2)cc1 [Example 1, (C6 H5)3 P] |  |  |  | 1.00 g·mol/L/h | 42 | 1.74 | 1.12 | inferior thermal stability
O=P(CCP(c1ccccc1)c1ccccc1)(c1ccccc1)c1ccccc1 [Example 9, (C6 H5)2 P(CH2)2 P(O)(C6 H5)2] |  |  |  | 0.63 g·mol/L/h | 40 | 1.06 | 0.87 | inferior thermal stability
(ClC6 H4)3 P [Example 8] |  |  |  | .32 g·mol/L/h | 46 | 0.59 | 0.49 | 
